Laboratory results as given in US20140045809A1, “CORROLES FOR NEUROPROTECTION AND NEURORESCUE” (priority 2008, published 2014).

Tests used:
NSC-34 G93A cells = experiment: Cell culture model of familial ALS, NSC-34 cells expressing mutant G93A-SOD1; type: cell-based, mouse; conditions: 48 h induction; even at a concentration as low as 0.5 μM
Protocol: Mutant-superoxide dismutase (G93A-SOD1) is associated with familial amyotrophic lateral sclerosis (FALS). A cell culture model of FALS was implemented by stably transfecting mouse motoneuronal NSC-34 cells or SH-SY5Y cells, to express mutant G93A-SOD1 at levels approximating those seen in the human disease. NSC-34 cells or SH-SY5Y cells were incubated in Dulbecco's modified Eagle's/F-12 medium supplemented with 10% FCS tetracycline-free (FCS Tet-free; Clontech), at 37° C. in an atmosphere of 5% CO2 in air. These cell lines are stably transfected with the pTet-ON plasmid (Clontech, Palo Alto, Calif.) coding for the reverse tetracycline controlled transactivator (rtTA). Induction of mutant SOD1 expression was obtained by shifting nonconfluent cultures into growth medium containing 1% N2 supplement (Invitrogen, Carlsbad, Calif.) and […] doxocyclin for 48 h in the presence or absence of corrole 1C-Fe and 5C-Fe.

INS-1E cells = experiment: Protection of INS-1E beta cells against H2O2 toxicity; type: cell-based, rat; conditions: 20 and 50 μM, 30 min before increasing H2O2 concentrations, 24 h
Protocol: Two insulin-secreting beta cell lines, rat insulinoma (INS-1E) and RIN-m cells, were used to examine the protective effect of corrole 1C-Fe. The cells were cultured at 37° C., in a humid 5% CO2, 95% air environment in regular RPMI-1640 medium (Invitrogen) supplemented with 5% fetal calf serum (FCS).
After 2 days of culture, INS-1E cells (5×10^4 cells/well in 96-well plates) were treated with corrole 1C-Fe (20 and 50 μM) added 30 minutes prior to treatment with increasing concentrations of H2O2 and then further incubated for 24 h.

[1] = Peroxynitrite decomposition rates by manganese corroles (Example 2); type: biochemical; conditions: 385 μM peroxynitrite, pH 7.4, 25° C., absorbance at 302 nm; Table 2
Protocol: The investigations were performed by examining the decay of 385 μM peroxynitrite at pH 7.4 and 25° C. in the presence and absence of various amounts of Mn corrole catalysts 2C-Mn, 2C′-Mn, 2C″-Mn, 3C-Mn and 4C-Mn. The differences between 2C-Mn, 2C′-Mn, and 2C″-Mn is in the identity of the 10-aryl group, which is C6F5, para-anisyl, and phenyl, respectively. The results (one example using 4C-Mn is shown in FIG. 1) were obtained by monitoring changes in absorbance at 302 nm, the λmax of peroxynitrite. The catalytic performances of five of the above compounds were tested; and the thus elucidated kcat values are presented in Table 2. Importantly, in sharp contrast with the corroles, none of the structurally similar manganese (III) porphyrin complexes affected the decomposition of peroxynitrite by any extent (not shown).

SH-SY5Y cells = type: cell-based; conditions: up to 50 μM; data not shown
albumin = albumin (Homo sapiens, UniProt P02768); experiment: Binding of corrole complexes to albumin; conditions: preliminary experiments
Source text: Issues regarding biodistribution, transport mechanisms, accumulation in specific organs, and the eventual elimination of administered compounds are among the prime concerns when it comes to real life utilization of potential drugs. This can be addressed by several and quite different means, including in vitro, in vivo and ex-vivo examinations. One way to predict distribution is via examination of the binding of the corroles to circulating proteins that might act as transporters, similar to experiment performed previously by the inventors with metal complexes of corrole 1C (Scheme 1), which spontaneously form tightly bound non-covalent bioconjugates with HDL (Haber et al., 2007), albumin (Mahammed et al., 2004), and transferrin (Haber and Gross. 2007) (listed in increasing order of affinity), as well as with semi-synthetic proteins (Agadjanian et al., 2006). […] A more direct approach relies on the strong fluorescence of corroles that are not chelated by transition metals (no metal such as in corroles 1C and 2C, or using corrole Ga/Al complexes such as 1C-Ga). This feature is used for testing cell entry via confocal microscopy (Agadjanian et al., 2006), without the need of attaching a fluorescent tag. Furthermore, it may even be used for whole animal imaging purposes, as shown in Example 4 hereinabove. […]

Sequence of albumin (P02768 25-609): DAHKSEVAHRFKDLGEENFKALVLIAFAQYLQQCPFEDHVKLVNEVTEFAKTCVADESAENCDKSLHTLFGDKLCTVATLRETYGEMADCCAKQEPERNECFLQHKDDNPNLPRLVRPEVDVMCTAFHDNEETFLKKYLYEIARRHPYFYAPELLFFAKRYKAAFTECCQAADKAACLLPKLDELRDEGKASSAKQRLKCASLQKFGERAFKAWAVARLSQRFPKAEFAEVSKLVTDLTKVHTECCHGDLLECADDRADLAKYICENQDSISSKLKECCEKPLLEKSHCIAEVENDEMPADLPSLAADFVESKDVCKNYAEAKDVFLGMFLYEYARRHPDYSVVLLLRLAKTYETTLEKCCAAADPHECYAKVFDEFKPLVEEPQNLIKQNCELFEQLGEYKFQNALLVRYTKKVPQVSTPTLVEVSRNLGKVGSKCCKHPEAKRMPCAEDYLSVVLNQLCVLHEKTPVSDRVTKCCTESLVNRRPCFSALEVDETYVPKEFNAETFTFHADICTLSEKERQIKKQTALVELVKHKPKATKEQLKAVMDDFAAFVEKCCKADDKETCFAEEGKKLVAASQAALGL

Row | Compound | cell viability of induced mutant cells (NSC-34 G93A cells) | protective effect against H2O2 toxicity (INS-1E cells) | kcat, peroxynitrite decomposition rate [1] [M⁻¹ s⁻¹] | preventing H2O2-mediated cytotoxicity (SH-SY5Y cells) | binding to albumin (albumin)
1 | O=S(=O)(O)c1cc2[n]3c1C(c1c(F)c(F)c(F)c(F)c1F)=C1C=CC4=[N+]1[Fe-]31[n]3c(cc(S(=O)(=O)O)c3-2)C(c2c(F)c(F)c(F)c(F)c2F)=c2ccc([n]21)=C4c1c(F)c(F)c(F)c(F)c1F (centres unmarked) [1C-Fe, 2,17-bis(sulfonato)-5,10,15-tris(pentafluorophenyl)-corrolato iron(III)] | significantly improved cell viability | significant protective effect | – | – | –
2 | C[n+]1ccc(C2=C3C=CC4=[N+]3[Mn-]35[n]6c2ccc6-c2ccc([n]23)C(c2cc[n+](C)cc2)=c2ccc([n]25)=C4c2c(F)c(F)c(F)c(F)c2F)cc1.[I-].[I-] (centres unmarked) [2C-Mn, 5,15-bis(4-N-methyl-pyridilium)-10-pentafluorophenyl-corrolato manganese(III) diiodide salt] | – | – | 150000 | not effective | do not bind to albumin
